# Reference: ChEMBL document CHEMBL3881525, “Analogs of dehydrophenylahistins and their therapeutic use” (2007)
# The source made the active and inactive calls. The rule behind the calls is not given here.
# What was measured:
# [1] = Cytotoxicity against human HT-29 cells assessed as reduction in cell viability measured after 48 hrs by resazurin dye-based fluorometric analysis; type: functional; conditions: Homo sapiens, HT-29, 48 h
# HeLa [2] = assay: Effect on cell cycle progression in human HeLa cells assessed as reduction in 2N cells at 200 nM; type: functional, cell-based
# HeLa [3] = assay: Effect on cell cycle progression in human HeLa cells assessed as […] cells at 200 nM; type: functional, cell-based
# [4] = Antiproliferative activity against taxol-sensitive human MES-SA cells […]; type: functional, cell-based
# [5] = Antiproliferative activity against taxol-sensitive human MES-SA cells pretreated with p-gp inhibitor cyclosporinA followed by compound addition; type: functional, cell-based
# MES-SA [6] = assay: Ratio of IC50 for taxol-sensitive human […] to IC50 for taxol-sensitive human […] pretreated with p-gp inhibitor cyclosporinA followed by compound addition; type: functional
# [7] = Antiproliferative activity against taxol-resistant human MES-SA/Dx5 cells expressing MDR1 mRNA and P-gp; type: functional, cell-based
# MES-SA [8] = assay: Ratio of IC50 for taxol-sensitive human […] to IC50 for taxol-resistant human MES-SA/DX5 cells expressing MDR1 mRNA and P-gp; type: functional
# [9] = Antiproliferative activity against taxol-resistant human MES-SA/Dx5 cells expressing MDR1 mRNA and P-gp pretreated with p-gp inhibitor cyclosporinA followed by compound addition; type: functional, cell-based
# [10] = Antiproliferative activity against human taxol-sensitive MCF7 cells; type: functional, cell-based
# MCF7 [11] = assay: Ratio of IC50 for human taxol-sensitive MCF7 cells to IC50 for human taxol-resistant MCF7/ADR cells; type: functional
# MES-SA [12] = assay: Ratio of EC50 for taxol-resistant human MES-SA/DX5 cells expressing MDR1 mRNA and P-gp to EC50 for taxol-sensitive human MES-SA cells; type: functional
# [13] = Antitumor activity against human MDA-MB-231 cells xenografted in nude mouse assessed as tumor growth inhibition at 7.5 mg/kg, ip qd for 5 days relative to control; type: functional; conditions: MDA-MB-231, ip, 120 h, read-out: TGI
# [14] = Antitumor activity against mouse B16F10 cells allografted in nude mouse assessed as mean growth inhibition at 10 mg/kg, iv qd for 5 days relative to control; type: functional, B16-F10; design: scale not given: the % may be the effect or the level left
# [15] = Antitumor activity against human HT-29 cells xenografted in nude mouse assessed as tumor growth inhibition at 30 mg/kg, ip administered every third day for 5 days in presence of CPT-11 relative to control; type: functional; conditions: HT-29, ip, 120 h, read-out: TGI
# HT-29 = assay: Ratio of IC50 for human CCD-27sk cells to IC50 for human HT-29 cells
# [16] = Cytotoxicity against human PC3 cells assessed as reduction in cell viability measured after 48 hrs by resazurin dye-based fluorometric analysis; type: functional; conditions: PC-3, 48 h
# [17] = Cytotoxicity against human PC3 cells assessed as reduction in cell viability measured after 48 hrs by resazurin dye-based fluorometric analysis relative to control; type: functional, PC-3; design: concentration or dose not given beside the values
# [18] = Cytotoxicity against human HT-29 cells assessed as reduction in cell viability measured after 48 hrs by resazurin dye-based fluorometric analysis relative to control; type: functional
# PC-3 = assay: Ratio of IC50 for human CCD-27sk cells to IC50 for human PC3 cells
# MDA-MB-231 = assay: Ratio of IC50 for human CCD-27sk cells to IC50 for human MDA-MB-231 cells
# NCI-H292 = assay: Ratio of IC50 for human CCD-27sk cells to IC50 for human NCI-H292 cells
# B16-F10 = assay: Ratio of IC50 for human CCD-27sk cells to IC50 for mouse B16F10 cells
# [19] = Cytotoxicity against human MDA-MB-231 cells assessed as reduction in cell viability measured after 48 hrs by resazurin dye-based fluorometric analysis; type: functional; conditions: MDA-MB-231, 48 h
# [20] = Cytotoxicity against human NCI-H292 cells assessed as reduction in cell viability measured after 48 hrs by resazurin dye-based fluorometric analysis; type: functional; conditions: NCI-H292, 48 h
# [21] = Cytotoxicity against human NCI-H292 cells assessed as reduction in cell viability measured after 48 hrs by resazurin dye-based fluorometric analysis relative to control; type: functional
# [22] = Cytotoxicity against human OVCAR3 cells assessed as reduction in cell viability measured after 48 hrs by resazurin dye-based fluorometric analysis; type: functional; conditions: OVCAR-3, 48 h
# [23] = Cytotoxicity against human OVCAR3 cells assessed as reduction in cell viability measured after 48 hrs by resazurin dye-based fluorometric analysis relative to control; type: functional, OVCAR-3
# [24] = Cytotoxicity against mouse B16F10 cells assessed as reduction in cell viability measured after 48 hrs by resazurin dye-based fluorometric analysis; type: functional; conditions: B16-F10, 48 h
# [25] = Cytotoxicity against mouse B16F10 cells assessed as reduction in cell viability measured after 48 hrs by resazurin dye-based fluorometric analysis relative to control; type: functional, B16-F10
# [26] = Cytotoxicity against human CCD-27Sk cells assessed as reduction in cell viability measured after 48 hrs by resazurin dye-based fluorometric analysis
# [27] = Cytotoxicity against human CCD-27Sk cells assessed as reduction in cell viability measured after 48 hrs by resazurin dye-based fluorometric analysis relative to control; conditions: read-out: INH
# MES-SA/Dx5 = assay: Ratio of IC50 for taxol-resistant human MES-SA/Dx5 cells expressing MDR1 mRNA and P-gp to IC50 for taxol-resistant human MES-SA/Dx5 cells expressing MDR1 mRNA and P-gp pretreated with p-gp inhibitor cyclosporinA followed by compound addition; type: functional
# [28] = Antiproliferative activity against human mitoxantrone-sensitive HL60 cells; type: functional, cell-based; conditions: HL-60
# [29] = Antiproliferative activity against human mitoxantrone-resistant HL60/MX2 cells; type: functional, cell-based; conditions: HL-60
# HL-60 = assay: Ratio of IC50 for human mitoxantrone-sensitive HL60 cells to IC50 for human mitoxantrone-resistant HL60/MX2 cells; type: functional
# Jurkat = assay: Induction of apoptosis in human Jurkat cells assessed as caspase3 activation; type: functional, cell-based
# [30] = Cytotoxicity against human Jurkat cells; type: functional, cell-based
# HUVEC = assay: Induction of monolayer permeability in HUVEC assessed as colchicin transport at 2 uM measured up to 1 hr; type: functional, cell-based; conditions: Homo sapiens
# MCF7 [31] = assay: Potentiation of taxotere-induced antitumor activity against human MCF7 cells xenografted in nude mouse assessed as tumor growth inhibition at 7.5 mg/kg, ip qd for 4 days measured on day 7; type: functional, organism-based
# Aspergillus fumigatus [32] = assay: Fungicidal activity against Aspergillus fumigatus isolate 2 measured after 48 hrs by broth dilution method; type: functional; conditions: isolate 2, 48 h
# Candida albicans [33] = assay: Antifungal activity against Candida albicans 90028 measured after 48 hrs by broth dilution method; type: functional; conditions: Candida albicans, 90028, 48 h
# Candida albicans [34] = assay: Antifungal activity against Candida albicans ATCC 10231 measured after 48 hrs by broth dilution method; type: functional; conditions: ATCC 10231, 48 h
# [35] = Antifungal activity against Candida glabrata measured after 48 hrs by broth dilution method; type: functional; conditions: Nakaseomyces glabratus
# Aspergillus fumigatus [36] = assay: Antifungal activity against Aspergillus fumigatus isolate 1 measured after 48 hrs by broth dilution method; type: functional; conditions: isolate 1, 48 h
# Aspergillus fumigatus [37] = assay: Antifungal activity against Aspergillus fumigatus isolate 2 measured after 48 hrs by broth dilution method; type: functional; conditions: isolate 2, 48 h
# [38] = Drug level assessed as human hepatic cytochrome P450-mediated compound formation treated with (+/-)phenylahistin; type: ADME
# MCF7 [39] = assay: Antimitotic activity in human MCF7 cells assessed as mitotic index measured after 20 hrs by DAPI-staining based fluorescence microscopic analysis; type: functional, cell-based
# [40] = (§1) Antimitotic activity in human MCF7 cells assessed as bipolar cells with uncompressed chromosomes at mitotic block IC50 measured after 20 hrs by immunofluorescence analysis relative to control; type: functional
# MCF7 [41] = assay: as §1; type: functional
# MCF7 [42] = assay: Antimitotic activity in human MCF7 cells assessed as microtubule polymer at twice mitotic block IC50 measured after 20 hrs by immunofluorescence analysis relative to control; type: functional, cell-based
# MCF7 [43] = assay: Antimitotic activity in human MCF7 cells assessed as decrease in microtubule polymer formation measured after 20 hrs by immunofluorescence analysis relative to control; type: functional, cell-based
# [44] = Antitumor activity against human MCF7 cells xenografted in nude mouse assessed as tumor growth inhibition at 7.5 mg/kg, ip qd for 5 days relative to control; type: functional; conditions: 120 h, read-out: TGI
# [45] = Antitumor activity against human DU145 cells xenografted in nude mouse assessed as tumor growth inhibition at […], iv administered every third day measured on day 28 relative to control; type: functional; conditions: DU-145, iv, 672 h, read-out: TGI
# [46] = Antitumor activity against human A549 cells xenografted in nude mouse assessed as tumor growth inhibition at […], ip qd for 5 days relative to control; type: functional; conditions: 120 h, read-out: TGI
# [47] = Antitumor activity against human A549 cells xenografted in nude mouse assessed as tumor growth inhibition at 7.5 mg/kg, ip qd for 5 days relative to control; type: functional; conditions: 120 h, read-out: TGI
smiles,measurement,setting,value
CC(=O)O[C@H]1C(=O)[C@@]2(C)[C@H]([C@H](OC(=O)c3ccccc3)[C@]3(O)C[C@H](OC(=O)[C@H](O)[C@@H](NC(=O)c4ccccc4)c4ccccc4)C(C)=C1C3(C)C)[C@]1(OC(C)=O)CO[C@@H]1C[C@@H]2O [PACLITAXEL],EC50,[1],16.2 nM
same,Activity,HeLa [2],Active
same,Activity,HeLa [3],Active
same,EC50,[4],4.8 to 13 nM
same,EC50,[5],2.8 to 18 nM
same,Ratio IC50,MES-SA [6],0.4 - 0.6
same,IC50,[7],100 to 24000 nM
same,Ratio IC50,MES-SA [8],>8 - 3000
same,IC50,[9],2 to 40 nM
same,IC50,[10],2.6 nM
same,Ratio IC50,MCF7 [11],>38
same,Ratio EC50,MES-SA [12],417
same,inhibition in vivo at 7.5 mg/kg,[13],53%
same,Activity,[14],35%
CC(C)(C)c1[nH]cnc1/C=C1\NC(=O)C(Cc2ccccc2)NC1=O (centres undefined),inhibition in vivo at 30 mg/kg,[15],77.7%
same,Ratio IC50,HT-29,>20 - 100
same,EC50,[1],255 to 420 nM
same,EC50,[16],174 nM
same,Activity,[17],59.5%
same,Activity,[18],88%
same,Ratio IC50,PC-3,>20 - 100
same,Ratio IC50,MDA-MB-231,>20 - 100
same,Ratio IC50,NCI-H292,>20 - 100
same,Ratio IC50,B16-F10,>20 - 100
same,EC50,[19],387 nM
same,EC50,[20],384 nM
same,inhibition (INH),[21],65%
same,EC50,[22],> 20000 nM
same,inhibition (INH),[23],37%
same,EC50,[24],736 nM
same,inhibition (INH),[25],74%
same,EC50,[26],> 20000 nM
same,cytotoxicity at 48 h,[27],45%
same,EC50,[4],122 to 144 nM
same,IC50,[5],27.4 nM
same,Ratio IC50,MES-SA [6],1.3
same,IC50,[7],694 to 835 nM
same,IC50,[9],622 nM
same,Ratio IC50,MES-SA/Dx5,0.9
same,EC50,[28],255 nM
same,EC50,[29],175 nM
same,Ratio IC50,HL-60,0.69
same,Activity,Jurkat,Dose-dependent effect
same,IC50,[30],165 nM
same,Activity,HUVEC,Active
same,TGI,MCF7 [31],Active
same,MFC,Aspergillus fumigatus [32],0.125 µg/mL
same,MIC,Candida albicans [33],> 32 µg/mL
same,MIC,Candida albicans [34],> 32 µg/mL
same,MIC,[35],> 32 µg/mL
same,MIC,Aspergillus fumigatus [36],> 16 µg/mL
same,MIC,Aspergillus fumigatus [37],< 0.03 µg/mL
CC(C)(c1[nH]cnc1/C=C1\NC(=O)[C@H](Cc2ccccc2)NC1=O)C1CO1 (stereo in doubt),Drug metabolism,[38],Metabolite_Detected
COc1cc2c(c(OC)c1OC)-c1ccc(OC)c(=O)cc1[C@@H](NC(C)=O)CC2 [COLCHICINE],MIC,[35],> 128 µg/mL
same,inhibition,MCF7 [39],Dose-dependent effect
same,Activity,[40],50%
same,Activity,MCF7 [41],Active
same,Activity,MCF7 [42],Active
same,Activity,MCF7 [43],Dose-dependent effect
CC(=O)O[C@@]12CO[C@@H]1C[C@H](O)[C@@]1(C)C(=O)[C@H](O)C3=C(C)[C@@H](OC(=O)[C@H](O)[C@@H](NC(=O)OC(C)(C)C)c4ccccc4)C[C@@](O)([C@@H](OC(=O)c4ccccc4)[C@H]21)C3(C)C [DOCETAXEL ANHYDROUS],inhibition in vivo at 7.5 mg/kg,[44],12 to 58%
same,inhibition in vivo at […],[45],44.8%
same,inhibition in vivo at […],[46],26.1%
same,TGI,MCF7 [31],Active
same,inhibition in vivo at 7.5 mg/kg,[47],26%
